# Results taken from patent US4379158A, “Antisecretory imidazole amidine compounds, composition and method of use” (Yamanouchi Pharmaceutical Co., Ltd., priority 1977, dated 1983).
# Where a name gives a salt, the structure may show the parent alone.
# How the values were obtained:
# gastric acid secretion = test: Effect of test compounds on gastric acid secretion in pylorus-ligated rats; format: in vivo; details: 50 mg/kg intraduodenal, immediately after pylorus ligation, 7 rats, mean ± S.E., *p < 0.01; for Gastric contents, Volume: control 3.2 ± 0.3; for Gastric contents, Acid output: control 380 ± 40.1
# Protocol: Rats weighing about 200 g. were deprived of food for 24 hours and their pylorus was ligated after an abdominal incision under ether anesthesia (Shay, H. et al.: Gastroenterol., 5, 43, 1945). Test compounds were intraduodenally given immediately after the pylorus ligation. The animals were sacrificed 4 hours after drug administration and gastric contents were collected. The gastric juice was titrated with 0.05 N NaOH to pH 7.0 for measurement of acidity.
# Histamine H2-receptor = target: T1, Histamine H2-receptor (Cavia porcellus, UniProt P47747); test: Histamine H2-receptor blocking activity of test compounds in isolated guinea-pig atria (histamine-induced tachycardia); format: cell-based, guinea-pigs; details: 5×10^-6 M histamine, Krebs-Henseleit solution, 36° C., mean ± S.E. from 5 experiments, read-out: ED50 (dose producing a 50% blockade of chronotropic action of histamine)
# T1 construct: Atrial preparations isolated from guinea-pigs; from tissue; host or cells: isolated guinea-pig atria
# T1 sequence (P47747 whole entry): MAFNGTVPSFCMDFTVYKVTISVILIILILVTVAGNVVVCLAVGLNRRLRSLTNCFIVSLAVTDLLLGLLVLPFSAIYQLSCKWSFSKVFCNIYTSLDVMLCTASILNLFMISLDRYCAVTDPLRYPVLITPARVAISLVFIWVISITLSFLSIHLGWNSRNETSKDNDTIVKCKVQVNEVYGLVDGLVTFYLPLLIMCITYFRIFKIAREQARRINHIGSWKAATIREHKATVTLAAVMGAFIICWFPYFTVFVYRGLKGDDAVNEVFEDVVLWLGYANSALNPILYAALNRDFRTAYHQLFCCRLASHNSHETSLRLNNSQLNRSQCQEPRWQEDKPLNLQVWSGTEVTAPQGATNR
# Protocol: Atrial preparations isolated from guinea-pigs were suspended in Krebs-Henseleit solution at 36° C. (Mitchell, I. et al. Europ. J. Pharmacol., 34, 95, 1975). The dose producing a 50% blockade of chronotropic action of 5×10^-6 M histamine was obtained from the dose-respose curve in which the inhibition percentage was plotted semilogarithmically against dose.
# H2-receptor = details: Ash and Schild 1966; Black et al. 1972; cited from earlier work
Structure (SMILES),IC50 (Histamine H2-receptor),"Gastric contents, Volume (gastric acid secretion)","Gastric contents, Acid output (gastric acid secretion)",inhibition/antagonism of the effects of histamine on gastric acid secretion and heart rate in isolated atrium (in words) (H2-receptor)
"CN(C)Cc1ccc(CSCCC(N)=NC#N)o1 [Example 41, NCyano-3-[5-(dimethylaminomethyl)furfurylthio]-propionamidine]",2100 nM,1.5 ± 0.2 ml/4 hours/rat,97 ± 17.2 μEq/4 hours/rat,–
C/N=C(\S)NCCSCc1[nH]cnc1C [metiamide],–,–,–,antagonized
COc1ccc(CN(CCN(C)C)c2ccccn2)cc1 [mepyramine],–,–,–,not inhibited
"C#CCN=C(N)CCSCc1ccc(CN(C)C)o1 [Example 42, 3-[5-(Dimethylaminomethyl)furfurylthio]-N2-propynylpropionamidine dihydrochloride]",–,1.7 ± 0.3 ml/4 hours/rat,137 ± 31.5 μEq/4 hours/rat,–

# Now from value to molecule, other results behind:
IC50 (Histamine H2-receptor),Structure (SMILES),"Gastric contents, Volume (gastric acid secretion)","Gastric contents, Acid output (gastric acid secretion)",inhibition/antagonism of the effects of histamine on gastric acid secretion and heart rate in isolated atrium (in words) (H2-receptor)
900 nM,"Cc1[nH]cnc1CSCCC(N)=NC(N)=O [Example 44, N-carbamoyl-3-(4-methyl-5-imidazolylmethylthio)-propionamidine]",1.4 ± 0.2 ml/4 hours/rat,79 ± 9.0 μEq/4 hours/rat,–
2300 nM,"C#CCN=C(N)CCSCc1nc[nH]c1C [Example 40, N2-Propynyl-3-[(5-methylimidazol-4-yl)methylthio]-propionamidine dihydrochloride]",–,–,–
